According to patent US12247032B2, “Substituted pyrazolo[1,5-a]pyrimidines as inhibitors of JAK kinases” (Genentech, Inc., priority 2019, dated 2025):
pIC50, pKi: −log10 of the molar value. Where two headings read alike, the source gives them in different places.

Assays:
[1] = tested on: JAK1 (IL-13-stimulated STAT6 phosphorylation in BEAS-2B cells); experiment: P-STAT6 BEAS-2B+IL-13 cell assay; format: cell-based, human; conditions: 1 hour compound, IL-13 15 minutes, IC50 by four-parameter fit, read-out: Cellular JAK1 PSTAT6 BEAS2B + IL13
Method in brief: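 BEAS-2B human bronchial epithelial cells preincubated 1 h at 37 °C with compound, then stimulated with human recombinant IL-13 for 15 min. Phospho-STAT6 (Tyr641) in lysates measured by MSD electrochemiluminescence immunoassay; IC50 from a four-parameter logistic fit of percent of control.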

[2] = biological target: T1, recombinant human JAK1 kinase domain protein (Residues 854-1154) (Homo sapiens, UniProt P23458); experiment: JAK1 biochemical assay (microfluidic mobility shift, peptide phosphorylation); conditions: 25 μM ATP, 1 nM total JAK1; Ki calculated from Ki app (tight-binding, competitive); read-out: Biochem JAK1 Ki
T1 construct: human JAK1 kinase domain protein (Residues 854-1154); purchased Proteros Biostructures GmbH (Martinsried, Germany); host or cells: insect cells
Method in brief: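 Insect-cell-expressed human JAK1 (1 nM, residues 854-1154) or JAK2 (0.2 nM, residues 812-1132) phosphorylating 1.5 μM 5-FAM peptide Y-1B with 25 μM ATP, pH 7.2 HEPES, 30 min at 22-23 °C; twelve concentrations up to 1000 nM in duplicate. Mobility-shift % conversion fitted to tight-binding quadratic for Ki^app.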

T1 sequence (P23458 854-1154): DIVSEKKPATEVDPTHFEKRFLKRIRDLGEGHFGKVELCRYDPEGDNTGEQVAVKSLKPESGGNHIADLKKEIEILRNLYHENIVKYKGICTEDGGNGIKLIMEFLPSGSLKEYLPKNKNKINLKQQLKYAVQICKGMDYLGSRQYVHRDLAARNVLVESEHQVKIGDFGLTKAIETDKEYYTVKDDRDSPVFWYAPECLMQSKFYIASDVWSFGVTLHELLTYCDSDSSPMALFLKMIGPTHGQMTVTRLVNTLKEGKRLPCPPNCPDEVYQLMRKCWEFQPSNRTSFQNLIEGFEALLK

Row | SMILES | pKi [2] | pIC50 ([1]; Homo sapiens, BEAS-2B, 1 h) | pIC50 [1]
1 | O=C(Nc1cn(Cc2nnn(C3CCNC3)n2)nc1-c1cc(OC(F)F)ccc1OC(F)F)c1cnn2cccnc12 (single isomer, unassigned) [Example 27, N-[3-[2,5-bis(difluoromethoxy)phenyl]-1-[(2-pyrrolidin-3-yltetrazol-5-yl)methyl]pyrazol-4-yl]pyrazolo[1,5-a]pyrimidine-3-carboxamide] | 9.46 | 7.92 | –
2 | CN1CCC(N2CC(n3nnc(Cn4cc(NC(=O)c5cnn6cccnc56)c(-c5cc(OC(F)F)ccc5OC(F)F)n4)n3)C2)C1 (single isomer, unassigned) [Example 72, N-[3-[2,5-bis(difluoromethoxy)phenyl]-1-[[2-[1-(1-methylpyrrolidin-3-yl)azetidin-3-yl]tetrazol-5-yl]methyl]pyrazol-4-yl]pyrazolo[1,5-a]pyrimidine-3-carboxamide] | 9.21 | 7.44 | –
3 | O=C(Nc1cn(Cc2nnn(C3CNC3)n2)nc1-c1cc(OC(F)F)ccc1OC(F)F)c1cnn2cccnc12 [Example 11, N-[1-[[2-(azetidin-3-yl)tetrazol-5-yl]methyl]-3-[2,5-bis(difluoromethoxy)phenyl]pyrazol-4-yl]pyrazolo[1,5-a]pyrimidine-3-carboxamide] | 9.41 | 7.64 | –
4 | O=C(Nc1cn(Cc2nnnn2C2CNC2)nc1-c1cc(OC(F)F)ccc1OC(F)F)c1cnn2cccnc12 [Example 12, N-[1-[[1-(azetidin-3-yl)tetrazol-5-yl]methyl]-3-[2,5-bis(difluoromethoxy)phenyl]pyrazol-4-yl]pyrazolo[1,5-a]pyrimidine-3-carboxamide] | 9.68 | 7.51 | –
5 | NCCn1nnnc1Cn1cc(NC(=O)c2cnn3cccnc23)c(-c2cc(OC(F)F)ccc2OC(F)F)n1 [Example 14, N-[1-[[1-(2-aminoethyl)tetrazol-5-yl]methyl]-3-[2,5-bis(difluoromethoxy)phenyl]pyrazol-4-yl]pyrazolo[1,5-a]pyrimidine-3-carboxamide] | 9.59 | 7.41 | –
6 | CNCCn1nnnc1Cn1cc(NC(=O)c2cnn3cccnc23)c(-c2cc(OC(F)F)ccc2OC(F)F)n1 [Example 19, N-[3-[2,5-bis(difluoromethoxy)phenyl]-1-[[1-[2-(methylamino)ethyl]tetrazol-5-yl]methyl]pyrazol-4-yl]pyrazolo[1,5-a]pyrimidine-3-carboxamide] | 9.66 | 7.68 | –
7 | CNCCn1nnc(Cn2cc(NC(=O)c3cnn4cccnc34)c(-c3cc(OC(F)F)ccc3OC(F)F)n2)n1 [Example 20, N-[3-[2,5-bis(difluoromethoxy)phenyl]-1-[[2-[2-(methylamino)ethyl]tetrazol-5-yl]methyl]pyrazol-4-yl]pyrazolo[1,5-a]pyrimidine-3-carboxamide] | 9.24 | 7.52 | –
8 | CN(C)CCN1CC(n2nnc(Cn3cc(NC(=O)c4cnn5cccnc45)c(-c4cc(OC(F)F)ccc4OC(F)F)n3)n2)C1 [Example 21, N-[3-[2,5-bis(difluoromethoxy)phenyl]-1-[[2-[1-[2-(dimethylamino)ethyl]azetidin-3-yl]tetrazol-5-yl]methyl]pyrazol-4-yl]pyrazolo[1,5-a]pyrimidine-3-carboxamide] | 9.40 | 7.82 | –
9 | CN1CCC(n2nnc(Cn3cc(NC(=O)c4cnn5cccnc45)c(-c4cc(OC(F)F)ccc4OC(F)F)n3)n2)CC1 [Example 22] | 9.36 | 7.72 | –
10 | CN1CC(n2nnc(Cn3cc(NC(=O)c4cnn5cccnc45)c(-c4cc(C5CC5)ccc4OC(F)F)n3)n2)C1 [Example 23, N-[3-[5-cyclopropyl-2-(difluoromethoxy)phenyl]-1-[[2-(1-methylazetidin-3-yl)tetrazol-5-yl]methyl]pyrazol-4-yl]pyrazolo[1,5-a]pyrimidine-3-carboxamide] | 9.38 | 7.77 | –

The remaining compounds from weak to strong by pKi [2], led by results:

Row | pKi [2] | SMILES | pIC50 ([1]; Homo sapiens, BEAS-2B, 1 h) | pIC50 [1]
11 | 9.29 | O=C(Nc1cn(Cc2nnn(C3CCNCC3)n2)nc1-c1cc(OC(F)F)ccc1OC(F)F)c1cnn2cccnc12 [Example 18, N-[3-[2,5-bis(difluoromethoxy)phenyl]-1-[[2-(4-piperidyl)tetrazol-5-yl]methyl]pyrazol-4-yl]pyrazolo[1,5-a]pyrimidine-3-carboxamide] | 7.46 | –
12 | 9.30 | O=C(Nc1cn(Cc2nnn(C3CNC3)n2)nc1-c1cc(Cl)ccc1OC(F)F)c1cnn2cccnc12 [Example 8, N-[1-[[2-(azetidin-3-yl)tetrazol-5-yl]methyl]-3-[5-chloro-2-(difluoromethoxy)phenyl]pyrazol-4-yl]pyrazolo[1,5-a]pyrimidine-3-carboxamide] | 8.03 | –
13 | 9.35 | CN(C)CCn1nnc(Cn2cc(NC(=O)c3cnn4cccnc34)c(-c3cc(OC(F)F)ccc3OC(F)F)n2)n1 [Example 16, N-[3-[2,5-bis(difluoromethoxy)phenyl]-1-[[2-[2-(dimethylamino)ethyl]tetrazol-5-yl]methyl]pyrazol-4-yl]pyrazolo[1,5-a]pyrimidine-3-carboxamide] | 7.74 | –
14 | 9.37 | CN(C)CCn1nnnc1Cn1cc(NC(=O)c2cnn3cccnc23)c(-c2cc(OC(F)F)ccc2OC(F)F)n1 [Example 17, N-[3-[2,5-bis(difluoromethoxy)phenyl]-1-[[1-[2-(dimethylamino)ethyl]tetrazol-5-yl]methyl]pyrazol-4-yl]pyrazolo[1,5-a]pyrimidine-3-carboxamide] | 7.72 | –
15 | 9.38 | CN1CC(n2nnc(Cn3cc(NC(=O)c4cnn5cccnc45)c(-c4cc(Cl)ccc4OC(F)F)n3)n2)C1 [Example 7, N-[3-[5-chloro-2-(difluoromethoxy)phenyl]-1-[[2-(1-methylazetidin-3-yl)tetrazol-5-yl]methyl]pyrazol-4-yl]pyrazolo[1,5-a]pyrimidine-3-carboxamide] | 8.01 | –
16 | 9.48 | CN1CC(n2nnc(Cn3cc(NC(=O)c4cnn5cccnc45)c(-c4cc(OC(F)F)ccc4OC(F)F)n3)n2)C1 [Example 10, N-[3-[2,5-bis(difluoromethoxy)phenyl]-1-[[2-(1-methylazetidin-3-yl)tetrazol-5-yl]methyl]pyrazol-4-yl]pyrazolo[1,5-a]pyrimidine-3-carboxamide] | 7.77 | –
17 | 9.52 | O=C(Nc1cn(Cc2nnn(C3CCNC3)n2)nc1-c1cc(OC(F)F)ccc1OC(F)F)c1cnn2cccnc12 (single isomer, unassigned) [Example 28, N-[3-[2,5-bis(difluoromethoxy)phenyl]-1-[(2-pyrrolidin-3-yltetrazol-5-yl)methyl]pyrazol-4-yl]pyrazolo[1,5-a]pyrimidine-3-carboxamide] | – | 7.92
18 | 9.60 | NCCn1nnc(Cn2cc(NC(=O)c3cnn4cccnc34)c(-c3cc(OC(F)F)ccc3OC(F)F)n2)n1 [Example 13, N-[1-[[2-(2-aminoethyl)tetrazol-5-yl]methyl]-3-[2,5-bis(difluoromethoxy)phenyl]pyrazol-4-yl]pyrazolo[1,5-a]pyrimidine-3-carboxamide] | 7.96 | –
19 | 9.66 | CN1CC(n2nnnc2Cn2cc(NC(=O)c3cnn4cccnc34)c(-c3cc(Cl)ccc3OC(F)F)n2)C1 [Example 15, N-[3-[5-chloro-2-(difluoromethoxy)phenyl]-1-[[1-(1-methylazetidin-3-yl)tetrazol-5-yl]methyl]pyrazol-4-yl]pyrazolo[1,5-a]pyrimidine-3-carboxamide] | 8.07 | –
